From PubChem BioAssay (NCI)
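Cells were grown in 96-well plates and exposed to each compound for 48 hours at five concentrations; endpoints were interpolated linearly between bracketing concentrations, or set to the highest concentration if not reached. At the GI50, growth is halved. TGI: total growth inhibition.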

Columns and labels:
Assay in all cases: NCI tumour cell line growth inhibition, 48 h
[1] = test system: SNB-75 CNS
[2] = test system: SK-OV-3 ovarian
[3] = test system: K-562 leukemia
[4] = test system: T-47D breast
[5] = test system: NCI/ADR-RES ovarian
[6] = test system: ACHN renal
[7] = test system: SW-620 colon
[8] = test system: UO-31 renal
[9] = test system: MOLT-4 leukemia
[10] = test system: SF-268 CNS
[11] = test system: U251 CNS
[12] = test system: HT29 colon
[13] = test system: A498 renal
[14] = test system: SN12C renal
[15] = test system: IGROV1 ovarian
[16] = test system: CAKI-1 renal
[17] = test system: SF-295 CNS
[18] = test system: NCI-H460 lung
[19] = test system: HOP-62 NSCLC
[20] = test system: RXF 393 renal
[21] = test system: UACC-257 melanoma
[22] = test system: PC-3 prostate
[23] = test system: DU-145 prostate
[24] = test system: HCT-116 colon
[25] = test system: NCI-H226 lung
[26] = test system: RPMI-8226 leukemia
[27] = test system: UACC-62 melanoma
[28] = test system: HOP-92 NSCLC
[29] = test system: SR leukemia
[30] = test system: SK-MEL-28 melanoma
[31] = test system: HCT-15 colon
[32] = test system: EKVX NSCLC
[33] = test system: OVCAR-8 ovarian
[34] = test system: MDA-MB-435
[35] = test system: SF-539 CNS
[36] = test system: MALME-3M melanoma
[37] = test system: SK-MEL-5 melanoma
[38] = test system: MDA-MB-231 breast
[39] = test system: KM12 colon
[40] = test system: OVCAR-4 ovarian
[41] = test system: OVCAR-3 ovarian
[42] = test system: CCRF-CEM leukemia
[43] = test system: 786-0 renal
[44] = test system: HS 578T breast
[45] = test system: MCF7 breast
[46] = test system: COLO 205 colon
[47] = test system: SK-MEL-2 melanoma
[48] = test system: TK-10 renal
[49] = test system: NCI-H522 lung
[50] = test system: NCI-H23 lung
[51] = test system: HL-60(TB) leukemia
[52] = test system: SNB-19 CNS
[53] = test system: OVCAR-5 ovarian
[54] = test system: A549 NSCLC
[55] = test system: HCC-2998 colon
[56] = test system: LOX IMVI melanoma
[57] = test system: BT-549 breast

For NC(N)=Nc1ccc(Nc2cccc(Oc3ccc(Cl)c(C(F)(F)F)c3)c2)cn1, the GI50 [1] was 1.6 µM, the TGI [1] was 3.33 µM and the GI50 [2] was 3.5 µM. For the same molecule, the TGI [2] was 13.2 µM, the GI50 [3] was 2.11 µM and the TGI [3] was greater than 100 µM. For the same molecule, the GI50 [4] was 1.62 µM, the TGI [4] was 4.55 µM and the GI50 [5] was 15.6 µM. The TGI [5] was greater than 100 µM.
With CCN(CC)CCOc1ccc(C(=C(C)Cc2ccc(OC)cc2)c2ccc(OCCN(CC)CC)cc2)cc1 the GI50 [6] was 4.46 µM, the TGI [6] was 8.67 µM and the GI50 [7] was 3.75 µM. It also gave a TGI [7] of 7.71 µM, a GI50 [8] of 3.42 µM and a TGI [8] of 6.82 µM. It also gave a GI50 [9] of 3.13 µM, a TGI [9] of 7.55 µM and a GI50 [10] of 4.22 µM. The TGI [10] was 9.16 µM, the GI50 [11] was 3.99 µM and the TGI [11] was 8.34 µM. For the same molecule, the GI50 [12] was 2.83 µM, the TGI [12] was 7.8 µM and the GI50 [13] was 3.67 µM. The TGI [13] was 16 µM, the GI50 [14] was 3.55 µM and the TGI [14] was 7.19 µM. It also gave a GI50 [15] of 4.18 µM, a TGI [15] of 8.31 µM and a GI50 [16] of 3.63 µM. The TGI [16] was 7.38 µM, the GI50 [17] was 4.36 µM and the TGI [17] was 8.49 µM. It also gave a GI50 [18] of 3.92 µM, a TGI [18] of 7.8 µM and a GI50 [19] of 4.7 µM. It also gave a TGI [19] of 11.2 µM, a GI50 [20] of 1.42 µM and a TGI [20] of 5.11 µM. The GI50 [21] was 4.62 µM, the TGI [21] was 9.29 µM and the GI50 [1] was 13.4 µM. It also gave a TGI [1] of 25 µM, a GI50 [22] of 3.88 µM and a TGI [22] of 8.15 µM. For the same molecule, the GI50 [23] was 4.59 µM, the TGI [23] was 10.6 µM and the GI50 [24] was 2.95 µM. For the same molecule, the TGI [24] was 6.51 µM, the GI50 [25] was 4.37 µM and the TGI [25] was 11.3 µM. For the same molecule, the GI50 [26] was 3.27 µM, the TGI [26] was 8.39 µM and the GI50 [27] was 4.59 µM. It also gave a TGI [27] of 8.87 µM, a GI50 [28] of 1.07 µM and a TGI [28] of 8.98 µM. For the same molecule, the GI50 [29] was 0.805 µM, the TGI [29] was 3.1 µM and the GI50 [30] was 3.72 µM. The TGI [30] was 7.21 µM, the GI50 [31] was 2.65 µM and the TGI [31] was 6.25 µM. It also gave a GI50 [32] of 3.84 µM, a TGI [32] of 9.13 µM and a GI50 [33] of 6.08 µM. It also gave a TGI [33] of 15.2 µM, a GI50 [34] of 3.96 µM and a TGI [34] of 7.48 µM. It also gave a GI50 [35] of 3.7 µM, a TGI [35] of 7.37 µM and a GI50 [36] of 6.12 µM. The TGI [36] was 10.5 µM, the GI50 [37] was 4 µM and the TGI [37] was 7.47 µM. It also gave a GI50 [2] of 5.06 µM, a TGI [2] of 10.5 µM and a GI50 [38] of 3.93 µM. The TGI [38] was 7.91 µM, the GI50 [39] was 3.66 µM and the TGI [39] was 7.57 µM. For the same molecule, the GI50 [40] was 4.48 µM, the TGI [40] was 10.7 µM and the GI50 [41] was 3.2 µM. For the same molecule, the TGI [41] was 7.5 µM, the GI50 [3] was 0.609 µM and the TGI [3] was 2.08 µM. It also gave a GI50 [42] of 2.65 µM, a TGI [42] of 7.2 µM and a GI50 [43] of 3.42 µM. The TGI [43] was 7.04 µM, the GI50 [44] was 4.34 µM and the TGI [44] was 11.5 µM. It also gave a GI50 [45] of 2.86 µM, a TGI [45] of 6.51 µM and a GI50 [46] of 4.45 µM. It also gave a TGI [46] of 10.3 µM, a GI50 [47] of 4.8 µM and a TGI [47] of 9.83 µM. For the same molecule, the GI50 [48] was 3.86 µM, the TGI [48] was 8.67 µM and the GI50 [49] was 4.56 µM. The TGI [49] was 9.86 µM, the GI50 [4] was 4.06 µM and the TGI [4] was 10.9 µM. It also gave a GI50 [50] of 4.59 µM, a TGI [50] of 10.5 µM and a GI50 [51] of 3.46 µM. For the same molecule, the TGI [51] was 7.77 µM, the GI50 [5] was 4.24 µM and the TGI [5] was 8.74 µM. For the same molecule, the GI50 [52] was 4.44 µM, the TGI [52] was 8.84 µM and the GI50 [53] was 3.68 µM. It also gave a TGI [53] of 7.32 µM, a GI50 [54] of 4.52 µM and a TGI [54] of 10.6 µM. It also gave a GI50 [55] of 3.57 µM, a TGI [55] of 6.97 µM and a GI50 [56] of 3.04 µM. It also gave a TGI [56] of 6.44 µM, a GI50 [57] of 3.84 µM and a TGI [57] of 7.48 µM.
